Experimental data taken from patent US10457691B2, “Macrocyclic kinase inhibitors and uses thereof” (Dana-Farber Cancer Institute, Inc., priority 2014, dated 2019).

Columns and labels:
Format in all cases: biochemical
MLK3 = MLK3 (Homo sapiens, UniProt Q16584); assay: Protein kinase assay ([γ-32P] ATP), MLK3; details: read-out: Activity of the protein kinase when treated with compound I-1 (% control)
Description: (§1) In another set of experiments, the activities of the compounds described herein against various protein kinases were determined according to the methods reported in Hastie et al., Nature Protocols, 2006, 1, 968-971.
(§2) Enzyme dilution buffer. This buffer consisted of 50 mM Tris-HCl, pH 7.5, 0.1 mM EGTA, 1 mg ml^−1 bovine serum albumin and 0.1% (vol/vol) 2-mercaptoethanol.
(§3) 10× concentrated assay buffer. An assay buffer of 500 mM Tris-HCl, pH 7.5, 1 mM EGTA, and 100 mM magnesium acetate was used for assay of a wide variety of protein kinases. In some experiments, other cofactors were included (e.g., calcium ions and calmodulin were included for assay of calcium-calmodulindependent protein kinases).
(§4) 1 mM [γ-^32P] ATP. The specific activity of the [γ-^32P] ATP solution was 1×10^5 to 1×10^6 c.p.m. per nmol depending on what was needed to produce an optimal signal/noise ratio. […] To measure the concentration of ATP, a sample of such a stock solution was diluted to 20 μM, and the absorbance of the diluted sample was measured at 259 nm. The absorbance of a 20-μM stock solution of ATP at 259 nm was about 0.31. […] ATP to produce a radioactivity of 1×10^5 to 1×10^6 c.p.m. per nmol. […]
(§5) 13) Measure radioactivity in the samples by Cerenkov counting (e.g., without liquid scintillation fluid) in a liquid scintillation counter using a “^32P program”. […]

JNK1 = JNK1 (Homo sapiens, UniProt P45983); assay: Protein kinase assay ([γ-32P] ATP), JNK1; details: read-out: Activity of the protein kinase when treated with compound I-1 (% control)
Description: as §1, §2, §3, §4, §5

CK2 = assay: Protein kinase assay ([γ-32P] ATP), CK2
Description: as §1, §2, §3, §4, §5

SRPK1 = SRPK1 (Homo sapiens, UniProt Q96SB4); assay: Protein kinase assay ([γ-32P] ATP), SRPK1; details: read-out: Activity of the protein kinase when treated with compound I-1 (% control)
Description: as §1, §2, §3, §4, §5

p38d MAPK = p38d MAPK (Homo sapiens, UniProt O15264); assay: Protein kinase assay ([γ-32P] ATP), p38d MAPK; details: read-out: Activity of the protein kinase when treated with compound I-1 (% control)
Sequence of p38d MAPK (O15264 whole entry): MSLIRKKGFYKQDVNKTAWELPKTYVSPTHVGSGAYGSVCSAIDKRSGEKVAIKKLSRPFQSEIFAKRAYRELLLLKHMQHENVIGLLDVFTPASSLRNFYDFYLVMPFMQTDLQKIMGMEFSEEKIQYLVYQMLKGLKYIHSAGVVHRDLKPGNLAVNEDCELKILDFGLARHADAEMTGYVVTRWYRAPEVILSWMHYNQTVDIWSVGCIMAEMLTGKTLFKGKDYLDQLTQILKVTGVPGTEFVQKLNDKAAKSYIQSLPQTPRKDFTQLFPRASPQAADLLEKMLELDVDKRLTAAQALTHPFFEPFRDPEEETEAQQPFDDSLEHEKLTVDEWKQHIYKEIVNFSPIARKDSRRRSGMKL
Description: as §1, §2, §3, §4, §5

CDK9-Cyclin T1 = CDK9-Cyclin T1 (Homo sapiens, UniProt P50750); assay: Protein kinase assay ([γ-32P] ATP), CDK9-Cyclin T1; details: read-out: Activity of the protein kinase when treated with compound I-1 (% control)
Description: as §1, §2, §3, §4, §5

PLK1 = PLK1 (Homo sapiens, UniProt P53350); assay: Protein kinase assay ([γ-32P] ATP), PLK1; details: read-out: Activity of the protein kinase when treated with compound I-1 (% control)
Description: as §1, §2, §3, §4, §5

BRSK1 = BRSK1 (Homo sapiens, UniProt Q8TDC3); assay: Protein kinase assay ([γ-32P] ATP), BRSK1; details: read-out: Activity of the protein kinase when treated with compound I-1 (% control)
Description: as §1, §2, §3, §4, §5

CHK1 = CHK1 (Homo sapiens, UniProt O14757); assay: Protein kinase assay ([γ-32P] ATP), CHK1; details: read-out: Activity of the protein kinase when treated with compound I-1 (% control)
Sequence of CHK1 (O14757 whole entry): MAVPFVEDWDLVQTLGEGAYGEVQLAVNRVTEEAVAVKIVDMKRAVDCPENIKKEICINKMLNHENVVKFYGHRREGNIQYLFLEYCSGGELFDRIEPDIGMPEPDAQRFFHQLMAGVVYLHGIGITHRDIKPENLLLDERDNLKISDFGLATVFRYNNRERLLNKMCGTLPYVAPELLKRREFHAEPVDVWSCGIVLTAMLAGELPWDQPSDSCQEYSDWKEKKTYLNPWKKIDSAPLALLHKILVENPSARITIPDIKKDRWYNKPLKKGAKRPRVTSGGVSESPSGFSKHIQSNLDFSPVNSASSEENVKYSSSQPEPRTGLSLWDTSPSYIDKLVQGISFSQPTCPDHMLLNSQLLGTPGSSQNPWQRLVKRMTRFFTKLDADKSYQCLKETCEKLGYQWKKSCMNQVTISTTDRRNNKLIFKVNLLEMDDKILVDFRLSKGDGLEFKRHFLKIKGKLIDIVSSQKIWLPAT
Description: as §1, §2, §3, §4, §5

MAPKAP-K3 = MAPKAP-K3 (Homo sapiens, UniProt Q16644); assay: Protein kinase assay ([γ-32P] ATP), MAPKAP-K3; details: read-out: Activity of the protein kinase when treated with compound I-1 (% control)
Sequence of MAPKAP-K3 (Q16644 whole entry): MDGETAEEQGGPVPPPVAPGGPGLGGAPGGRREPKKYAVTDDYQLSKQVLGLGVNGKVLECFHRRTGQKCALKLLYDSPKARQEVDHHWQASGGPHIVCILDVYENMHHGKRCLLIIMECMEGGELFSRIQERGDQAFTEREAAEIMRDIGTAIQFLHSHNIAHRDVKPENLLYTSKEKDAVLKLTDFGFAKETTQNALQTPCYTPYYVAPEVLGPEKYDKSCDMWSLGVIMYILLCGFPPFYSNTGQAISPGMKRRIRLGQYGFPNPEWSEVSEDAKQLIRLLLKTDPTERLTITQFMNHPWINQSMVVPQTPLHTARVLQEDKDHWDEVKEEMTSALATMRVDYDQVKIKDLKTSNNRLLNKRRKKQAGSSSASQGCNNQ
Description: as §1, §2, §3, §4, §5

IKKe = IKKe (Homo sapiens, UniProt Q14164); assay: Protein kinase assay ([γ-32P] ATP), IKKe; details: read-out: Activity of the protein kinase when treated with compound I-1 (% control)
Description: as §1, §2, §3, §4, §5

TIE2 = TIE2 (Homo sapiens, UniProt Q02763); assay: Protein kinase assay ([γ-32P] ATP), TIE2; details: read-out: Activity of the protein kinase when treated with compound I-1 (% control)
Sequence of TIE2 (Q02763 23-1124, species assumed): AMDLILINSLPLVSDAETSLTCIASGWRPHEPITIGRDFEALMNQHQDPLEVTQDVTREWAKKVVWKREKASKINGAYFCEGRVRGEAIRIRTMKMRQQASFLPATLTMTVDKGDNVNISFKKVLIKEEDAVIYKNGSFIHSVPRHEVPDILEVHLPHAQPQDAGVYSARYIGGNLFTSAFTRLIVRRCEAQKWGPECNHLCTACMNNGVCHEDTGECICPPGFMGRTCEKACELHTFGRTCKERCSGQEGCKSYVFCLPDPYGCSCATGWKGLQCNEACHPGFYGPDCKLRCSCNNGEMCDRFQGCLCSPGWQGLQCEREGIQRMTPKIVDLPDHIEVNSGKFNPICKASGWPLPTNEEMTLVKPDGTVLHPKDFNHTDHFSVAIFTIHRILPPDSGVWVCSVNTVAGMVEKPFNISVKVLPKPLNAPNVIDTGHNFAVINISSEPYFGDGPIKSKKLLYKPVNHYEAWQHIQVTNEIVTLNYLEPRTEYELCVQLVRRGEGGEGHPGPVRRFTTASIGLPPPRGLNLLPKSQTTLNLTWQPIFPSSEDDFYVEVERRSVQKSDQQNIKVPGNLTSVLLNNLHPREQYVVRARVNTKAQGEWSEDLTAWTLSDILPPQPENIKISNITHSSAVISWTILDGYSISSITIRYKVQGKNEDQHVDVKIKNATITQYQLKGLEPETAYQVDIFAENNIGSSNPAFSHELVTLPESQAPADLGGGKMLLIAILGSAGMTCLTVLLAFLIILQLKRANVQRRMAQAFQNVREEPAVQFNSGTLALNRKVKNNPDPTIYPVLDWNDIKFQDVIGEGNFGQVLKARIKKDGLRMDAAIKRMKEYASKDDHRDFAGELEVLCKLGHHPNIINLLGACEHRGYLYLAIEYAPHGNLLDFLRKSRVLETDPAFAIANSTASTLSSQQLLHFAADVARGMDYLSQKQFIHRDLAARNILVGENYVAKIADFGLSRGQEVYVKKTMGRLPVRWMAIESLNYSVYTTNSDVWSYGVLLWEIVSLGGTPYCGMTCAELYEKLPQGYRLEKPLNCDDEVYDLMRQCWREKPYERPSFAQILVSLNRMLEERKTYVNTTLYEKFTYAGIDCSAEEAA
Description: as §1, §2, §3, §4, §5

ABL = ABL (Homo sapiens, UniProt P00519); assay: Protein kinase assay ([γ-32P] ATP), ABL; details: read-out: Activity of the protein kinase when treated with compound I-1 (% control)
Description: as §1, §2, §3, §4, §5

HIPK3 = HIPK3 (Homo sapiens, UniProt Q9H422); assay: Protein kinase assay ([γ-32P] ATP), HIPK3; details: read-out: Activity of the protein kinase when treated with compound I-1 (% control)
Sequence of HIPK3 (Q9H422 whole entry): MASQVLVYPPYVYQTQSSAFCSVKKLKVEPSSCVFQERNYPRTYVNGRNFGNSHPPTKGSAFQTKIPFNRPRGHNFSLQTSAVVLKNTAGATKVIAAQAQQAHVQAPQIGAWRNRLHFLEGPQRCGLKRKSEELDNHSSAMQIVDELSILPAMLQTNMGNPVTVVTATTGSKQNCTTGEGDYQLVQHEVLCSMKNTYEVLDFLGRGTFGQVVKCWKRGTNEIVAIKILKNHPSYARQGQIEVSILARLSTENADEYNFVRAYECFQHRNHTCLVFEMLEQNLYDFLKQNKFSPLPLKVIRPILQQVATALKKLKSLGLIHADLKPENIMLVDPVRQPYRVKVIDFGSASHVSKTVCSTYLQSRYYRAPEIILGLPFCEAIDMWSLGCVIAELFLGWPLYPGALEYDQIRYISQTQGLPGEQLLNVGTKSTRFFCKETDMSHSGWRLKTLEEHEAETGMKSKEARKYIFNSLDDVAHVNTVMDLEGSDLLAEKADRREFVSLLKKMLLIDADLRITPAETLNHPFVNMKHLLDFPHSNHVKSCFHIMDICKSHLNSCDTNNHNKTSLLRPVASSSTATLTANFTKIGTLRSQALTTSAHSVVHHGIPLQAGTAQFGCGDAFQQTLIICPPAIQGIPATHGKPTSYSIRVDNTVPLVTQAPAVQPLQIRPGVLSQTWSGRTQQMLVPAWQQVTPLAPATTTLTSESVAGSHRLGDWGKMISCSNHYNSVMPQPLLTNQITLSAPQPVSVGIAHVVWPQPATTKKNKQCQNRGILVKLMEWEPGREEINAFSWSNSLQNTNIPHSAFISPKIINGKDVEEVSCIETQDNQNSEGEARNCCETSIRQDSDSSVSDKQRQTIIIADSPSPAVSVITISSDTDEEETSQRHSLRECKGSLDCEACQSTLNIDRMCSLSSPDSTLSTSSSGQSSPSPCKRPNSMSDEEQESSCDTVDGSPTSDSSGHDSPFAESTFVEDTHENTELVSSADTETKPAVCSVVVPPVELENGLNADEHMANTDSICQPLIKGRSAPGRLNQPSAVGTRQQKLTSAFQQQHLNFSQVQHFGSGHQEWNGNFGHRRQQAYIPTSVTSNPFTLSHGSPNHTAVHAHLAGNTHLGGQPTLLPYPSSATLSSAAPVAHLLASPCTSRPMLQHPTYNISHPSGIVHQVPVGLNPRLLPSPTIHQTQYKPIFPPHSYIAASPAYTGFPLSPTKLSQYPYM
Description: as §1, §2, §3, §4, §5

PKA = PKA (Homo sapiens, UniProt P17612); assay: Protein kinase assay ([γ-32P] ATP), PKA; details: read-out: Activity of the protein kinase when treated with compound I-1 (% control)
Description: as §1, §2, §3, §4, §5

NEK2a = NEK2a (Homo sapiens, UniProt P51955); assay: Protein kinase assay ([γ-32P] ATP), NEK2a; details: read-out: Activity of the protein kinase when treated with compound I-1 (% control)
Sequence of NEK2a (P51955 whole entry): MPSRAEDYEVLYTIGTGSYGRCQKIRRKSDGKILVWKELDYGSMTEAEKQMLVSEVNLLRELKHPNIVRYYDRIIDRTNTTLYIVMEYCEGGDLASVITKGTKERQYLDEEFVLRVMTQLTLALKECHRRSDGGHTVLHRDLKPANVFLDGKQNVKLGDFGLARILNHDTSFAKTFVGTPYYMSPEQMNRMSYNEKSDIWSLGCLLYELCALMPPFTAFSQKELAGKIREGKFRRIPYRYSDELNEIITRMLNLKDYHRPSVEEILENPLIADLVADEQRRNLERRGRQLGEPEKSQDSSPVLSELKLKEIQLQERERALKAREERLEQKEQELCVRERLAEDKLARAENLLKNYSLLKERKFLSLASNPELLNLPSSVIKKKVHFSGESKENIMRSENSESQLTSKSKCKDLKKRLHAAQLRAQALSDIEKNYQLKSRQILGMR
Description: as §1, §2, §3, §4, §5

MARK2 = MARK2 (Homo sapiens, UniProt Q7KZI7); assay: Protein kinase assay ([γ-32P] ATP), MARK2; details: read-out: Activity of the protein kinase when treated with compound I-1 (% control)
Description: as §1, §2, §3, §4, §5

[1] = 0.1 μM of compound I-1, DMSO control = 100%
[2] = 1 μM of compound I-1, DMSO control = 100%

Sequence of MLK3 (Q16584 whole entry): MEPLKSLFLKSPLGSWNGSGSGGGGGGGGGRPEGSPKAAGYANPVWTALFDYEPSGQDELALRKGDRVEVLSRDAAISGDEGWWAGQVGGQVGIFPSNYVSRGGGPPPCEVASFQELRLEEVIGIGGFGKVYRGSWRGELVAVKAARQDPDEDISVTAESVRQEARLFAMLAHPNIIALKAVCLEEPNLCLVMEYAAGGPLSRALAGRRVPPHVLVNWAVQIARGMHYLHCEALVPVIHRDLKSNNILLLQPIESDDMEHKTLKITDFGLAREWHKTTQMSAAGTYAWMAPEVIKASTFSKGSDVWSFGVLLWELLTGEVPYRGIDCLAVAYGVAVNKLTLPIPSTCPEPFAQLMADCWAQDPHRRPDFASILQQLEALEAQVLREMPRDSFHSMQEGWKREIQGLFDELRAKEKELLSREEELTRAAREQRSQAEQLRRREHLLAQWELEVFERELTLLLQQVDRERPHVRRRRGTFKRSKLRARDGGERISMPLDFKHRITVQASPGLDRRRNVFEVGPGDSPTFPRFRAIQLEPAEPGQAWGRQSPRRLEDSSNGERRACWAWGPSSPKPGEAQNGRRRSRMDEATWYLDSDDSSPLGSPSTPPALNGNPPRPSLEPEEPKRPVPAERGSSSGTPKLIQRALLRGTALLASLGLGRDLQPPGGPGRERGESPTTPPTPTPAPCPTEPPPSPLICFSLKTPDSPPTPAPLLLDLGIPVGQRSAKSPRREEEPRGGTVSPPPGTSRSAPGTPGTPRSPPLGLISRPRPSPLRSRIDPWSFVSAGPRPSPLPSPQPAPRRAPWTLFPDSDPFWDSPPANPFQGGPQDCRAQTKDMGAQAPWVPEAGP

## Cc1cccc(C)c1NC(=O)N1C/C=C\COc2cccc(c2)Nc2cc1ncn2 [Compound I-1]
MLK3; [1]
  remaining activity at 0.1 µM: 94%
MLK3; [2]
  remaining activity at 1 µM: 39%
JNK1; [1]
  remaining activity at 0.1 µM: 93%
JNK1; [2]
  remaining activity at 1 µM: 72%
CK2; [1]
  Activity of the protein kinase when treated with compound I-1 (% control): 97 % control
CK2; [2]
  Activity of the protein kinase when treated with compound I-1 (% control): 91 % control
SRPK1; [1]
  remaining activity at 0.1 µM: 100%
SRPK1; [2]
  remaining activity at 1 µM: 74%
p38d MAPK; [1]
  remaining activity at 0.1 µM: 110%
p38d MAPK; [2]
  remaining activity at 1 µM: 73%
CDK9-Cyclin T1; [1]
  remaining activity at 0.1 µM: 116%
CDK9-Cyclin T1; [2]
  remaining activity at 1 µM: 92%
PLK1; [1]
  remaining activity at 0.1 µM: 104%
PLK1; [2]
  remaining activity at 1 µM: 101%
BRSK1; [1]
  remaining activity at 0.1 µM: 87%
BRSK1; [2]
  remaining activity at 1 µM: 66%
CHK1; [1]
  remaining activity at 0.1 µM: 99%
CHK1; [2]
  remaining activity at 1 µM: 94%
MAPKAP-K3; [1]
  remaining activity at 0.1 µM: 108%
MAPKAP-K3; [2]
  remaining activity at 1 µM: 89%
IKKe; [1]
  remaining activity at 0.1 µM: 111%
IKKe; [2]
  remaining activity at 1 µM: 90%
TIE2; [1]
  remaining activity at 0.1 µM: 52%
TIE2; [2]
  remaining activity at 1 µM: 10%
ABL; [1]
  remaining activity at 0.1 µM: 7%
ABL; [2]
  remaining activity at 1 µM: 2%
HIPK3; [1]
  remaining activity at 0.1 µM: 89%
HIPK3; [2]
  remaining activity at 1 µM: 81%
PKA; [1]
  remaining activity at 0.1 µM: 105%
PKA; [2]
  remaining activity at 1 µM: 88%
NEK2a; [1]
  remaining activity at 0.1 µM: 97%
NEK2a; [2]
  remaining activity at 1 µM: 85%
MARK2; [1]
  remaining activity at 0.1 µM: 102%
MARK2; [2]
  remaining activity at 1 µM: 71%
